20 substances from US20250075209A1, “RNAS FOR COMPLEMENT INHIBITION” (Apellis Pharmaceuticals, Inc., priority 2021, published 2025) can be followed below.

The series concerns factor B mRNA transcript. Description: Knockdown of factor B expression in HepG2 cells using siRNAs, dose response experiments (DRC). In kind it is cell-based, human. Particulars: for Max Factor B inhibition (%): dose response up to 100 nM. As to the method: HepG2 cells were obtained from ATCC (ATCC in partnership with LGC Standards, Wesel, Germany, cat. #ATCC-HB-8065) and cultured in MEM Eagle (#M2279, Sigma-Aldrich, Germany), supplemented to contain 10% fetal calf serum (#1248D, Biochrom GmbH, Berlin, Germany), 1×non-essential amino acids (#K0293; Biochrom, Berlin, Germany), 4 mM L-Glutamine (#K0283, Biochrom, Berlin, Germany) and 100 U/ml Penicillin/100 μg/ml Streptomycin (#A2213, Biochrom GmbH, Berlin, Germany) at 37° C. in an atmosphere with 5% CO2 in a humidified incubator.
24 siRNAs were designed and synthesized to target different regions of the factor B mRNA transcript. In this experiment, the sense strand of each siRNA contained 18 nucleotides identical to a target region sequence on the factor B transcript (SEQ ID NO: 75), and one additional adenine nucleotide at the 3′ end. Additionally, in this experiment, the antisense strand contained 18 nucleotides complementary to a target region sequence on the factor B transcript (SEQ ID NO: 75), and one additional uracil nucleotide at the 5′ end, and 2 additional uracil nucleotides at the 3′ end.
Transfection of siRNA was carried out with Lipofectamine RNAiMax (Invitrogen/Life Technologies, Karlsruhe, Germany) according to manufacturer's instructions for reverse transfection.
Each siRNA was tested using dose response experiments (DRC) in HepG2 cells. Dose-response experiments were done with siRNA in 10 concentrations transfected in quadruplicates, starting at 100 nM in 6-fold dilutions steps down to ˜10 fM. Mock transfected cells served as negative controls.
For each well, the target mRNA level was normalized to the respective GAPDH mRNA level. The activity of a given siRNA was expressed as percent mRNA concentration of the respective target (normalized to GAPDH mRNA) in treated cells, relative to the target mRNA concentration (normalized to GAPDH mRNA) averaged across mock transfected wells (DRCs).
Dose response experiments described above were repeated in a subset of siRNAs shown in Table 9, specifically siRNAs 2, 7, 8, and 3.

The mark [1] stands for this setting: reverse transfection, 10 concentrations from 100 nM in 6-fold dilutions, factor B mRNA normalized to GAPDH, relative to mock, Table 8.
Where [2] appears, read: additional (repeated) dose response experiments, Table 10.

Oligonucleotides are written 5' to 3', each unit as a sugar letter and its base; * is a phosphorothioate linkage, no mark a phosphodiester; rarer units and linkages stand in square brackets, end groups in braces. Plain capitals give the bases only. m = 2'-O-methyl; f = 2'-fluoro

The term IC20 denotes the concentration at which the effect reaches the 20% level. What is called IC50 is the concentration that gives 50% inhibition. A lower IC50 goes with higher potency. Usually IC80 stands for the concentration at which the effect reaches the 80% level. High values mean a need for much substance, low ones an effect from little substance. Regarding “1 (sense mC*mC*fUmAmCmUfAfCfAmAmUfGmUmGmAmGfUmGmA; antisense mU*fC*mAmCmUmCmAmCmAmUmUmGmUfAmGmUmAmGmG*mU*mU; siRNA) [compound 1]”, the “Max Factor B inhibition (%)” value (Table 8) is reported as 91.04%. Under setting [1], the IC20 came to 0.03 nM, the IC50 was found to be 0.54 nM and the IC80 is 19.8 nM.

In the case of “2 (sense mC*mU*fUmCmUmGfGfCfUmUmCfUmAmCmCmCfGmUmA; antisense mU*fA*mCmGmGmGmUmAmGmAmAmGmCfCmAmGmAmAmG*mU*mU; siRNA) [compound 2]”, under setting [2], the 20% effect level (IC20) was put at 0.021 nM, the 50% inhibitory concentration (IC50) turned out to be 0.0887 nM, the IC80 came out at 0.865 nM and the “Max KD [%]” value came to 83.5%. For the same substance, the “Max Factor B inhibition (%)” value (Table 8) came to 90.18%. Further, under setting [1], the IC80 came out at 7.07 nM.

As to “3 (sense mU*mU*fCmUmGmGfCfUfUmCmUfAmCmCmCmGfUmAmA; antisense mU*fU*mAmCmGmGmGmUmAmGmAmAmGfCmCmAmGmAmA*mU*mU; siRNA) [compound 3]”, under setting [2], it took 0.0722 nM to reach the 20% level (IC20), the IC50 was found to be 0.204 nM, it took 0.886 nM to reach the 80% level (IC80) and the “Max KD [%]” value is listed as 87%. Further, the “Max Factor B inhibition (%)” value (Table 8) was 89.76%. Under setting [1], this substance returned a concentration for an effect of 20% (IC20) of 0.02 nM, an IC50 of 0.29 nM and a concentration for an effect of 80% (IC80) of 12 nM.

As to “4 (sense mC*mU*fGmCmUmAfUfGfAmCmGfGmUmUmAmCfAmCmA; antisense mU*fG*mUmGmUmAmAmCmCmGmUmCmAfUmAmGmCmAmG*mU*mU; siRNA) [compound 4]”, the “Max Factor B inhibition (%)” value (Table 8) was determined as 88.29%. Under setting [1], this substance registered an IC20 of 0.05 nM, an IC50 of 0.48 nM and an 80% effect concentration (IC80) of 10.9 nM.

On to “5 (sense mG*mG*fGmGmAmGfUfAfGmUmGfGmAmUmGmUfCmUmA; antisense mU*fA*mGmAmCmAmUmCmCmAmCmUmAfCmUmCmCmCmC*mU*mU; siRNA) [compound 5]”, for which the “Max Factor B inhibition (%)” value (Table 8) came out at 86.90%. Further, under setting [1], the 20% effect concentration (IC20) amounted to 0.1 nM, the IC50 came out at 0.67 nM and the IC80 was found to be 9.65 nM.

As for “6 (sense mU*mG*fUmGmGmUfGfUfCmUmGfAmGmUmAmCfUmUmA; antisense mU*fA*mAmGmUmAmCmUmCmAmGmAmCfAmCmCmAmCmA*mU*mU; siRNA) [compound 6]”, the “Max Factor B inhibition (%)” value (Table 8) was found to be 85.34%. Under setting [1], this substance came in with an IC20 of 0.03 nM, a half-maximal inhibitory concentration (IC50) of 0.37 nM and an IC80 of 16.1 nM.

In the case of “7 (sense mU*mA*fCmGmUmGfUfGfUmCmCfUmUmCmUmGfGmCmA; antisense mU*fG*mCmCmAmGmAmAmGmGmAmCmAfCmAmCmGmUmA*mU*mU; siRNA) [compound 7]”, under setting [2], the IC20 was 0.026 nM, the IC50 came to 0.103 nM, the IC80 was 0.868 nM and the “Max KD [%]” value stood at 83.5%. Also, the “Max Factor B inhibition (%)” value (Table 8) is 82.44%. Further, under setting [1], inhibition was half-maximal at 0.02 nM (IC50) and the IC80 turned out to be 670 nM.

“8 (sense mA*mA*fGmUmGmUfCfUfAmGmUfCmAmAmCmUfUmAmA; antisense mU*fU*mAmAmGmUmUmGmAmCmUmAmGfAmCmAmCmUmU*mU*mU; siRNA) [compound 8]”: under setting [2], the IC20 amounted to 0.0889 nM, the IC50 turned out to be 0.271 nM and the “Max KD [%]” value came to 76.2%. Also, under “Table 8”, the “Max Factor B inhibition (%)” value was found to be 82.24%. Under setting [1], this substance displayed an IC50 of 0.16 nM and an IC80 of 717 nM.

For “9 (sense mC*mU*fAmUmGmAfCfGfUmUmGfCmCmCmUmGfAmUmA; antisense mU*fA*mUmCmAmGmGmGmCmAmAmCmGfUmCmAmUmAmG*mU*mU; siRNA) [compound 9]”, the “Max Factor B inhibition (%)” value (Table 8) was found to be 82.07%. Under setting [1], this substance returned an IC20 of 0.01 nM, an IC50 of 0.27 nM and an IC80 of 142 nM.

On to “10 (sense mC*mU*fCmGmGmUfUfCfCmUmUfUmGmUmAmCfUmGmA; antisense mU*fC*mAmGmUmAmCmAmAmAmGmGmAfAmCmCmGmAmG*mU*mU; siRNA) [compound 10]”, for which the “Max Factor B inhibition (%)” value (Table 8) turned out to be 81.72%. Under setting [1], this substance showed an IC20 of 0.43 nM, an IC50 of 1.7 nM and an IC80 of 31.6 nM.

As for “11 (sense mA*mC*fCmAmUmAfGfAfAmGmGfAmGmUmCmGfAmUmA; antisense mU*fA*mUmCmGmAmCmUmCmCmUmUmCfUmAmUmGmGmU*mU*mU; siRNA) [compound 11]”, the “Max Factor B inhibition (%)” value (Table 8) was found to be 81.08%. Further, under setting [1], the IC20 was found to be 0.01 nM, the IC50 came out at 0.26 nM and the 80% effect level (IC80) was put at 2350 nM.

As to “12 (sense mG*mG*fAmUmUmAfUfCfUmGmGfAmUmGmUmCfUmAmA; antisense mU*fU*mAmGmAmCmAmUmCmCmAmGmAfUmAmAmUmCmC*mU*mU; siRNA) [compound 12]”, the “Max Factor B inhibition (%)” value (Table 8) was found to be 80.54%. Under setting [1], this substance showed an IC20 of 0.13 nM, an IC50 of 0.89 nM and an IC80 of 183 nM.

“13 (sense mA*mC*fGmUmUmGfCfCfCmUmGfAmUmCmAmAfGmCmA; antisense mU*fG*mCmUmUmGmAmUmCmAmGmGmGfCmAmAmCmGmU*mU*mU; siRNA) [compound 13]”: for the setting “Table 8”, the “Max Factor B inhibition (%)” value worked out at 80.41%. Under setting [1], this substance came in with an IC20 of 0.06 nM, an IC50 of 0.69 nM and an 80% effect concentration (IC80) of 1340 nM.

On to “14 (sense mG*mG*fAmGmCmCfAfAfAmAmAfGmUmGmUmCfUmAmA; antisense mU*fU*mAmGmAmCmAmCmUmUmUmUmUfGmGmCmUmCmC*mU*mU; siRNA) [compound 14]”, for which the “Max Factor B inhibition (%)” value (Table 8) came to 79.20%. Under setting [1], this substance returned an IC20 of 0.22 nM and an IC50 of 1.3 nM.

As for “15 (sense mC*mC*fGmAmUmUfAfCfCmAmCfAmAmGmCmAfAmCmA; antisense mU*fG*mUmUmGmCmUmUmGmUmGmGmUfAmAmUmCmGmG*mU*mU; siRNA) [compound 15]”, under “Table 8”, the “Max Factor B inhibition (%)” value turned out to be 78.63%. For the same substance, under setting [1], the IC20 worked out at 1.7 nM and half-maximal inhibition (IC50) was put at 6.31 nM.

As to “16 (sense mA*mA*fUmGmCmAfGfAfCmUmGfGmGmUmCmAfCmGmA; antisense mU*fC*mGmUmGmAmCmCmCmAmGmUmCfUmGmCmAmUmU*mU*mU; siRNA) [compound 16]”, the “Max Factor B inhibition (%)” value (Table 8) is on record as 77.05%. Under setting [1], this substance yielded an IC20 of 0.01 nM and a half-inhibitory concentration (IC50) of 0.3 nM.

On to “17 (sense mC*mU*fCmAmCmGfCfCfCmGmAfGmAmCmUmUfUmCmA; antisense mU*fG*mAmAmAmGmUmCmUmCmGmGmGfCmGmUmGmAmG*mU*mU; siRNA) [compound 17]”, for which the “Max Factor B inhibition (%)” value (Table 8) is 75.50%. Under setting [1], this substance showed an IC20 of 0.07 nM and an IC50 of 0.85 nM.

For “18 (sense mC*mA*fGmCmGmAfUfCfUmGmUfGmAmCmAmAfCmGmA; antisense mU*fC*mGmUmUmGmUmCmAmCmAmGmAfUmCmGmCmUmG*mU*mU; siRNA) [compound 18]”, the “Max Factor B inhibition (%)” value (Table 8) is reported as 75.45%. Under setting [1], this substance came in with an IC20 of 0.3 nM and an IC50 of 2.02 nM.

For the substance “19 (sense mC*mU*fAmCmCmAfCfUfUmGmCfCmAmGmCmAfAmCmA; antisense mU*fG*mUmUmGmCmUmGmGmCmAmAmGfUmGmGmUmAmG*mU*mU; siRNA) [compound 19]”, the “Max Factor B inhibition (%)” value (Table 8) amounted to 74.03%. Besides, under setting [1], the IC20 came out at 0.16 nM and half-maximal inhibition (IC50) required 1.12 nM.

For the substance “20 (sense mU*mU*fUmAmUmGfAfCfUmAmUfGmAmCmGmUfUmGmA; antisense mU*fC*mAmAmCmGmUmCmAmUmAmGmUfCmAmUmAmAmA*mU*mU; siRNA) [compound 20]”, where the note is “Table 8”, the “Max Factor B inhibition (%)” value was found to be 74.02%. Under setting [1], this substance came in with an IC20 of 1.1 nM and an IC50 of 3.52 nM.
